Legend:
[1] = test system: A2780 ovarian carcinoma cells; test: Determination of antiproliferative activity on A2780 cells (MTT); type: cell-based; details: Homo sapiens, 96 h, four days of incubation, read-out: Cellular activity pIC50 (converted)
Description: Cellular activity of the compounds of formula (I) was determined on A2780 tumour cells using a colorimetric assay for cell toxicity or survival (Mosmann Tim, Journal of Immunological Methods 65:55-63, 1983)(see example C.2).
All compounds tested were dissolved in DMSO and further dilutions were made in culture medium. Final DMSO concentrations never exceeded 0.1% (v/v) in cell proliferation assays. Controls contained A2780 cells and DMSO without compound and blanks contained DMSO but no cells. MTT was dissolved at 5 mg/ml in PBS. A glycine buffer comprised of 0.1 M glycine and 0.1 M NaCl buffered to pH 10.5 with NaOH (1 N) was prepared (all reagents were from Merck).
The human A2780 ovarian carcinoma cells (a kind gift from Dr. T. C. Hamilton [Fox Chase Cancer Centre, Pennsylvania, USA]) were cultured in RPMI 1640 medium supplemented with 2 mM L-glutamine, 50 μg/ml gentamicin and 10% fetal calf serum. Cells were routinely kept as monolayer cultures at 37° C. in a humidified 5% CO2 atmosphere. Cells were passaged once a week using a trypsin/EDTA solution at a split ratio of 1:40. All media and supplements were obtained from Life Technologies. Cells were free of mycoplasma contamination as determined using the Gen-Probe Mycoplasma Tissue Culture kit (supplier: BioMerieux).
Cells were seeded in NUNC™ 96-well culture plates (Supplier: Life Technologies) and allowed to adhere to the plastic overnight. Densities used for plating were 1500 cells per well in a total volume of 200 μl medium. After cell adhesion to the plates, medium was changed and drugs and/or solvents were added to a final volume of 200 μl. Following four days of incubation, medium was replaced by 200 μl fresh medium and cell density and viability was assessed using an MTT-based assay. To each well, 25 μl MTT solution was added and the cells were further incubated for 2 hours at 37° C. The medium was then carefully aspirated and the blue MTT-formazan product was solubilized by addition of 25 μl glycine buffer followed by 100 μl of DMSO. […] Within an experiment, the results for each experimental condition are the mean of 3 replicate wells. For initial screening purposes, compounds were tested at a single fixed concentration of 10^−6 M. For active compounds, the experiments were repeated to establish full concentration-response curves. For each experiment, controls (containing no drug) and a blank incubation (containing no cells or drugs) were run in parallel. The blank value was subtracted from all control and sample values. For each sample, the mean value for cell growth (in absorbance units) was expressed as a percentage of the mean value for cell growth of the control. […] Herein the effects of test compounds are expressed as pIC50 (the negative log value of the IC50-value)(see Table F-3).

[2] = Metabolic stability with rat hepatocytes cell culture; type: in vitro ADME; details: rat hepatocyte cell cultures, 5 μM
Text: Metabolism of drugs means that a lipid-soluble xenobiotic or endobiotic compound is enzymatically transformed into (a) polar, water-soluble, and excretable metabolite(s). The major organ for drug metabolism is the liver. […] However, some metabolites may have enhanced activity or toxic effects. Thus drug metabolism may include both “detoxication” and “toxication” processes. One of the major enzyme systems that determine the organism's capability of dealing with drugs and chemicals is represented by the cytochrome P450 monooxygenases, which are NADPH dependent enzymes. Metabolic stability of compounds can be determined in vitro with the use of subcellular human tissue (see example C.5.a.). Here metabolic stability of the compounds is expressed as % of drug metabolised after 15 minutes incubation of these compounds with microsomes. Quantitation of the compounds was determined by LC-MS analysis. Metabolic stability of compounds can also be determined by calculating the half live of compounds in rat hepatocyte cells (see example C.5.b.). […]
Samples were prepared for LC-MS by addition of two volumes of DMSO. […] Of the resulting supernatant 50 μl was analysed by LC-MS. […]
Total injection volume of samples was 50 μL. […] The mass spectrometer was operated in positive ion mode in SIM adjusted to the mass of […] with a scan width of 1 Da for quantification purposes. […]

- IC50 [1]: 25.1 nM
- in vitro half-live [2]: 103 min
SMILES: O=C(NO)c1cnc(N2CCC(CNC(/C=C/c3ccccc3)CO)CC2)nc1 (centres unmarked) [Compound 1]

Reference: US8377935B2, “Substituted aminopropenyl piperidine or morpholine derivatives as novel inhibitors of histone deacetylase” (Janssen Pharmaceutica N.V., priority 2005, dated 2013)
